Source: patent US12466840B2, “Small molecule inhibitors of KRAS proteins” (Merck Sharp & Dohme LLC, priority 2023, dated 2025)
Like-named read-outs stand apart in the source and are kept apart here.

Legend:
KRAS G12S = KRAS G12S (Homo sapiens (Human), UniProt P01116, G12S); experiment: SOS-catalyzed nucleotide exchange assay (GNE), KRAS G12S; type: biochemical; settings: TR-FRET, 60 min preincubation
From the text: (§1) Procedure for SOS-Catalyzed Nucleotide Exchange Assay for KRAS-WT, G12C/D/V/A/R/S, G13D, Q61H, HRAS-WT, and NRAS-WT
(§2) Recombinant KRAS-G12C protein used in this assay has an additional triple mutation (C51S/C80L/C118S). Whereas KRAS-WT, G12D/V/A/S/R, G13D, Q61H, HRAS and NRAS are in context of their WT protein sequence background. Specifically, the SOS-catalyzed nucleotide exchange assay utilizes a preformed TR-FRET complex containing a specific biotinylated RAS protein (KRAS-WT, G12C/V/D/A/S/R, G13D, Q61H, HRAS-WT, NRAS-WT; described above) with Bodipy-GDP, and Terbium-streptavidin. Compounds are preincubated with this complex for 60 minutes. Subsequently, recombinant human SOS protein and unlabeled GTP are added to initiate the exchange reaction. Small molecule inhibitors stabilize the Bodipy-GDP complex whereas the untreated protein rapidly exchanges Bodipy-GDP for unlabeled GTP resulting in reduced TR-FRET signal.
(§3) To assemble the preformed TR-FRET complexes, each biotinylated RAS protein is diluted to 2 μM in an EDTA Buffer (20 mM HEPES pH 7.5, 50 mM sodium chloride, 10 mM EDTA, and 0.01% Tween) and incubated at room temperature for one hour. This mixture is then further diluted to 90 nM in an Assay Buffer (20 mM HEPES pH 7.5, 150 mM sodium chloride, 10 mM magnesium chloride, and 0.005% Tween) containing 15 nM of Terbium-Streptavidin (Invitrogen, catalog #PV3577) and 900 nM of Bodipy-GDP (Invitrogen, catalog #G22360) and incubated at room temperature for six hours. It should be noted that this preformed TR-FRET complex for each of the RAS protein were made ahead of time, aliquoted and stored at −80° C. until the day of the experiment.
(§4) Each test compound (10 mM stock in DMSO) is diluted in DMSO to make a final-10-point, 3-fold dilution and is acoustically dispensed into a 384-well assay plate (Corning, catalog #3820) using an Echo 550 (Labcyte). Each well of the assay plate receives 3 μL of a specific 3×RAS preformed TR-FRET complex and 3 μL of Assay Buffer and is incubated at room temperature for 60 minutes (preincubation time). Each well then receives 3 μL of 3× recombinant human SOS protein and GTP (Sigma, G8877) in Assay Buffer and is incubated at room temperature for 30 minutes (G13D), 60 minutes (KRAS WT/G12C/D, H/NRAS) or 90 minutes for G12A/R/S/V and Q61H. The final reaction in each well of 9 μL consists of 3 mM GTP, specific Ras and SOS proteins in the following concentrations: KRAS-G12C/SOS=3 nM/40 nM, KRAS-WT and G12D/SOS=1 nM/40 nM, KRAS-G12V/SOS=1.25 nM/160 nM, KRAS-G12A/S/SOS=1 nM/160 nM, KRAS-G12R/SOS=1 nM/320 nM, KRAS-Q61H/SOS=1 nM/320 nM, KRAS-G13D/SOS=1.25 nM/[…], HRAS-WT and NRAS-WT=1.25 nM/40 nM.
(§5) The time-resolved fluorescence resonance energy transfer (TR-FRET) signal is measured on an Envision (PerkinElmer) plate reader: Excitation filter=340 nm; emission1=495 nm; emission2=520 nm; dichroic mirror=D400/D505; delay time=[…]. The signal of each well is determined as the ratio of the emission at 520 nm to that at 495 nm. Percent effect of each well is determined after normalization to control wells containing DMSO (no effect) or a saturating concentration of inhibitor (max effect). The apparent effect as a function of compound concentration is fit to a four-parameter logistic equation.

[1] = system: AsPC-1 cells (homozygous KRAS-G12D); experiment: Cellular phospho-ERK assay, AsPC-1 cells; type: cell-based; settings: p-ERK vs. total ERK, read-out: AsPC1 pERK IC50
Protocol: Procedure for Cellular Phospho-ERK Assay in KRAS Wild Type and Mutant (G12D, G12V) Cell Lines
MKN-1 cells (JCRB JCRB0252) containing amplified wild-type KRAS, were cultured in growth medium that contains RPMI 1640-GlutaMAX™-I (ThermoFisher Scientific 61870) containing 10% heat inactivated fetal bovine serum (ThermoFisher Scientific 10091148), 1 mM sodium pyruvate and 10 mM HEPES. AsPC-1 cells (ATCC® CRL-1682™), containing homozygous KRAS-G12D activating mutation, were cultured in T150 flask in growth medium (RPMI medium 1640-GlutaMAX™-I (ThermoFisher Scientific 61870) containing 10% fetal bovine serum (ThermoFisher Scientific 10091148)). SW620 cells (ATCC® CRL-227™) containing homozygous KRAS-G12V activating mutation, were cultured in growth medium that contains RPMI 1640-GlutaMAX™-I (ThermoFisher Scientific 61870) containing 10% heat inactivated fetal bovine serum (ThermoFisher Scientific 10091148).
Cells for the assay were harvested in growth medium after TrypLE (ThermoFisher scientific 12604021) digestion and were seeded in a 384-well collagen coated cell culture plate (Corning 356702) at a density of 10,000-15,000 cells/[…]/well, and incubated at 37° C., 5% CO2 overnight. The compound (with 10 mM stock concentration) dose-response titrations were prepared [30 μM final ERK detection assay concentration and 1:3 dilutions, 10-point dose response] and appropriate amounts (270 nL) of test compounds were dispensed in a 384-well intermediate plate using an Echo 550 liquid handler. 30 μL/well of RPMI medium 1640-GlutaMAX™-I was added to the intermediate plate and the contents of the intermediate plate (10 μL/well) were then transferred to the 384-well collagen coated cell culture plate, which was incubated at 37° C., 5% CO2 for 2 h. After removal of medium from the collagen coated cell culture plate, cells were lysed in lysis buffer from Alpha SureFire® Ultra™ Multiplex p-ERK and total ERK assay kit (PerkinElmer MPSU-PTERK) containing Halt™ Protease and Phosphatase inhibitor cocktail (ThermoFisher Scientific 78446) at room temperature with constant shaking at 300 rpm for 30 minutes. The cell lysates were then transferred to an OptiPlate-384 plate (PerkinElmer 6005620), and the phosphorylation of ERK (p-ERK) and total ERK levels were detected by Alpha SureFire® Ultra™ Multiplex p-EEK kit and total ERK assay kit (PerkinElmer MPSU-PTERK) following the manufacturer's protocol. Assay plates were read on a EnVision Multimode Plate Reader (PerkinElmer), and the ratio of p-ERK vs. total ERK in each well was used as the final readout. Dose response curves were analyzed using a 4-parameter logistic model to calculate IC50 values using Spotfire software.

NRAS = NRAS (Homo sapiens (Human), UniProt P01111); experiment: SOS-catalyzed nucleotide exchange assay (GNE), NRAS-WT; type: biochemical; settings: TR-FRET, 60 min preincubation
NRAS, sequence (P01111 other isoform, or with tags, fused parts or gaps): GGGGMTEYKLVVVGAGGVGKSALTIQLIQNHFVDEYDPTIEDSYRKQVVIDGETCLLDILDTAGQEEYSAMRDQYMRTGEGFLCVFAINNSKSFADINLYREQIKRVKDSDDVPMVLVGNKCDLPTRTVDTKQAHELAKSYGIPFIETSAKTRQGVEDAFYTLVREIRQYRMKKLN
From the text: as §1, §2, §3, §4, §5

KRAS WT = KRAS WT (Homo sapiens (Human), UniProt P01116); experiment: SOS-catalyzed nucleotide exchange assay (GNE), KRAS WT; type: biochemical; settings: TR-FRET, 60 min preincubation
KRAS WT, sequence (P01116 other isoform, or with tags, fused parts or gaps): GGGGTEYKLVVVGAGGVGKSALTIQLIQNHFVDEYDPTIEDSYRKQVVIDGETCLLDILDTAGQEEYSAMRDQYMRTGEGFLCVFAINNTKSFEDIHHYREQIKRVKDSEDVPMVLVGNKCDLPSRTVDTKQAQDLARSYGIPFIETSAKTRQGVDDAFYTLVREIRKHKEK
From the text: as §1, §2, §3, §4, §5

KRAS G12S, sequence (P01116 other isoform, or with tags, fused parts or gaps G12S (already in the parent)): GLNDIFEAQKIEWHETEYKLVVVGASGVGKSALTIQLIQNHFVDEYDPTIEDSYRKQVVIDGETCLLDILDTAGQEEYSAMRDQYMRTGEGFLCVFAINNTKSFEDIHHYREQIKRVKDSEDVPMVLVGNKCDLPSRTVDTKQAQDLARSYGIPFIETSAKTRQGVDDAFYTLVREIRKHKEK

Structure (SMILES)	IC50 (KRAS G12S)	IC50 ([1]; Homo sapiens, ASPC1, 2 h)	IC50 (NRAS)	IC50 (KRAS WT)	IC50 ([1]; 2 h)
CCc1c(F)ccc2cc3[nH]nc(C)c3c(-c3nc4c5c(nc(OC[C@@]67CCCN6C[C@H](F)C7)nc5c3F)N3CCCOC[C@H]3CO4)c12 [Ex-6, (8aS)-5-(5-ethyl-6-fluoro-3-methyl-1H-benzo[f]indazol-4-yl)-4-fluoro-2-(((2R,7aS)-2-fluorotetrahydro-1H-pyrrolizin-7a(5H)-yl)methoxy)-8a,9,12,13-tetrahydro-8H,11H-7,10-dioxa-1,3,6,13a-tetraazanaphtho[1,8-ab]heptalene]	1.2 nM	9.5 nM	10000 nM	1.6 nM	
F/C=C1/CN2CCC[C@@]2(COc2nc3c4c(nc(-c5c(C6CC6)c(Cl)cc6[nH]ncc56)c(F)c4n2)OC[C@@H]2COCCCN32)C1 [Ex-1, (8aS)-5-(6-chloro-5-cyclopropyl-1H-indazol-4-yl)-4-fluoro-2-(((S,Z)-2-(fluoromethylene)tetrahydro-1H-pyrrolizin-7a(5H)-yl)methoxy)-8a,9,12,13-tetrahydro-8H,11H-7,10-dioxa-1,3,6,13a-tetraazanaphtho[1,8-ab]heptalene]	< 0.69 nM		> 11100 nM	0.87 nM	5.1 nM
CCc1c(F)ccc2cc3[nH]ncc3c(-c3nc4c5c(nc(OC[C@@]67CCCN6C[C@H](F)C7)nc5c3F)N3CCCOC[C@H]3CO4)c12 [Ex-2, (8aS)-5-(5-ethyl-6-fluoro-1H-benzo[f]indazol-4-yl)-4-fluoro-2-(((2R,7aS)-2-fluorotetrahydro-1H-pyrrolizin-7a(5H)-yl)methoxy)-8a,9,12,13-tetrahydro-8H,11H-7,10-dioxa-1,3,6,13a-tetraazanaphtho[1,8-ab]heptalene]	< 0.69 nM		7020 nM	1.1 nM	7.4 nM
CCc1c(F)ccc2cc3[nH]ncc3c(-c3nc4c5c(nc(OC[C@@]67CCCN6C/C(=C\F)C7)nc5c3F)N3CCCOC[C@H]3CO4)c12 [Ex-4, (8aS)-5-(5-ethyl-6-fluoro-1H-benzo[f]indazol-4-yl)-4-fluoro-2-(((S,Z)-2-(fluoromethylene)tetrahydro-1H-pyrrolizin-7a(5H)-yl)methoxy)-8a,9,12,13-tetrahydro-8H,11H-7,10-dioxa-1,3,6,13a-tetraazanaphtho[1,8-ab]heptalene]	< 0.69 nM	2.2 nM	2820 nM	< 0.69 nM	
F/C=C1\CN2CCC[C@@]2(COc2nc3c4c(nc(-c5c(C6(F)CC6)c(Cl)cc6[nH]ncc56)c(F)c4n2)OC[C@@H]2COCCCN32)C1 [Ex-5, (8aS)-5-(6-chloro-5-(1-fluorocyclopropyl)-1H-indazol-4-yl)-4-fluoro-2-(((S,Z)-2-(fluoromethylene)tetrahydro-1H-pyrrolizin-7a(5H)-yl)methoxy)-8a,9,12,13-tetrahydro-8H,11H-7,10-dioxa-1,3,6,13a-tetraazanaphtho[1,8-ab]heptalene]	0.77 nM	3.2 nM	> 11100 nM	< 0.69 nM	
CCc1c(F)ccc2cc3[nH]nc(C)c3c(-c3nc4c5c(nc(OC[C@@]67CCCN6C/C(=C\F)C7)nc5c3F)N3CCCOC[C@H]3CO4)c12 [Ex-7, (8aS)-5-(5-ethyl-6-fluoro-3-methyl-1H-benzo[f]indazol-4-yl)-4-fluoro-2-(((S,Z)-2-(fluoromethylene)tetrahydro-1H-pyrrolizin-7a(5H)-yl)methoxy)-8a,9,12,13-tetrahydro-8H,11H-7,10-dioxa-1,3,6,13a-tetraazanaphtho[1,8-ab]heptalene]	1.3 nM		8980 nM	1.4 nM	7.1 nM
Fc1c(-c2c(C3CC3)c(Cl)cc3[nH]ncc23)nc2c3c(nc(OC[C@@]45CCCN4C[C@H](F)C5)nc13)N1CCCOC[C@H]1CO2 [Ex-3, (8aS)-5-(6-chloro-5-cyclopropyl-1H-indazol-4-yl)-4-fluoro-2-(((2R,7aS)-2-fluorotetrahydro-1H-pyrrolizin-7a(5H)-yl)methoxy)-8a,9,12,13-tetrahydro-8H,11H-7,10-dioxa-1,3,6,13a-tetraazanaphtho[1,8-ab]heptalene]		15 nM		2.5 nM	
